Source: patent US20180161433A1, “SIZE TUNABLE MICROBIAL MIMETICS FOR IMMUNOTHERAPY OF THYROID CARCINOMAS AND SOLID TUMORS” (priority 2017, published 2018)
“Also recorded” adds a separate entry of the source. Strand notation (5' to 3'): a small letter for the sugar, then the base; units joined by * are phosphorothioate-linked, units joined directly phosphodiester-linked; [ ] holds rarer units or linkages, { } end groups; capitals alone tell only the bases. r = 2'-OH (RNA)

Columns and labels:
[1] = system: Human peripheral blood mononuclear cells (PBMCs); test: Induced cytokine secretion by PBMCs (ELISA); assay type: cell-based; details: for cytokine secretion when complexed to the CAL2 peptide: complexed to CAL2, versus the component on its own; for cytokine secretion, component on its own: individual component, 24 hours
Method: (§1) FIG. 10 is bar graph showing the induced secretion of IL-6 by PBMCs exposed to PolyIC, RNA248, DNA4, DNA10, PolyIC complexed with SEQ. ID NO. 36 (CAL2), RNA248 complexed with SEQ. ID NO. 36, DNA4 complexed with SEQ. ID NO. 36, DNA10 complexed with SEQ. ID NO. 36, DNA4 and RNA248 complexed with SEQ. ID NO. 36, Pam2CSK4-conjugated SEQ. ID NO. 36 complexed with DNA4 and SEQ. ID NO. 36 alone. Each well contained ˜300,000 fresh PBMCs in a total volume of 100 μL of RPMI medium. Solutions of SEQ. ID NO. 36, PolyIC, DNA4, DNA10, Pam2CSK4-conjugated SEQ. ID NO. 36 were all pre-mixed to concentrations of 50 ug/mL (for each peptide reagent) and then added to wells in volumes of 100 uL, such that each well contained a 200 uL volume of PBMCs and reagents. Wells were run in triplicate and the mean value is indicated.
as §1, with “FIG. 11” for “FIG. 10”, “of IL-10” for “of IL-6”
FIG. 12 is a bar graph showing the induced secretion of IL-12 by PBMCs exposed to PolyIC, RNA248, DNA4, DNA10, PolyIC complexed with SEQ. ID NO. 36 (CAL2), RNA248 complexed with SEQ. ID NO. 36, DNA4 complexed with SEQ. ID NO. 36, DNA10 complexed with SEQ. ID NO. 36, DNA4 and RNA248 complexed with SEQ. ID NO. 36, Pam2CSK4-conjugated SEQ. ID NO. 36 complexed with DNA4 and SEQ. ID NO. 36 alone. Each well contained ˜300,000 fresh PBMCs in a total volume of 100 μL of RPMI medium. Solutions of SEQ. ID NO. 36, PolyIC, DNA4, DNA10, Pam2CSK4-conjugated SEQ. ID NO. 36 were all pre-mixed to concentrations of 50 ug/mL (for each peptide reagent) and then added to wells in volumes of 100 uL, such that each well contained a 200 uL volume of PBMCs and reagents. Wells were run in triplicate and the mean value is indicated.
FIG. 13 is a bar graph showing the induced secretion of IL-15 by PBMCs exposed to PolyIC, RNA248, DNA4, DNA10, PolyIC complexed with SEQ. ID NO. 36 (CAL2), RNA248 complexed with SEQ. ID NO. 36, DNA4 complexed with SEQ. ID NO. 36, DNA10 complexed with SEQ. ID NO. 36, DNA4 and RNA248 complexed with SEQ. ID NO. 36, Pam2CSK4-conjugated SEQ. ID NO. 36 complexed with DNA4 and SEQ. ID NO. 36 alone. Each well contained ˜300,000 fresh PBMCs in a total volume of 100 μL of RPMI medium. Solutions of SEQ. ID NO. 36, PolyIC, DNA4, DNA10, Pam2CSK4-conjugated SEQ. ID NO. 36 were all pre-mixed to concentrations of 50 ug/mL (for each peptide reagent) and then added to wells in volumes of 100 uL, such that each well contained a 200 uL volume of PBMCs and reagents. Wells were run in triplicate and the mean value is indicated.
as §1, with “FIG. 14” for “FIG. 10”, “is a” for “is”, “of IFN-α” for “of IL-6”, “reagents. […]” for “reagents. Wells were run in triplicate and the mean value is indicated.”

DNA4/RNA248 = test: MM complex stability by gel electrophoresis; assay type: physicochemical; details: for complex formation with DNA4/RNA248: disappearance of free DNA4/RNA248 at sufficient peptide concentrations
Method: FIG. 9 is an image generated from a gel electrophoresis experiment (20 V/cm), whereby SEQ. ID NO. 36 (1 mg/mL) was mixed with DNA4/RNA248 (1 mg/mL) at ratios of 1:4 (Lane #2), 1:2 (Lane #3), 1:1 (Lane #4), 2:1 (Lane #5), and 4:1 (Lane #6) SEQ. ID NO. 36 to DNA4/RNA248. For reference, only DNA4/RNA248 was placed in Lane #1. The DNA4/RNA248 mixture travels in the gel away from the negative electrode (top) due its inherent negative charge.
Given the importance of forming stable complexes of antigenic cargo with immune-stimulatory molecules, the stability of MM was characterized using gel electrophoresis. MM were formed by mixing CAL2 (SEQ. ID NO. 36) with […] at varying ratios. […] The experiment was repeated for several other peptides, including SEQ. ID NOS. 34 and 42. […] Furthermore, the intensity of each band decreased as concentration of peptide increased. The presence of the linker sequence, RRHRKRR (SEQ. ID NO. 64), was determined to be critical for stable complexation. Separately, solutions of MM were tested after sitting at room temperature for 2 weeks yielding nearly identical results.

[2] = system: metastatic iodine-refractory differentiated thyroid cancer (DTC); details: cited from earlier work
[3] = system: activated circulating CTLs; details: PD-1+ and LAG-3+ gated flow cytometry; cited from earlier work
[4] = 25 μg/mL, 24 hours, 300,000 PBMCs per well

For “5′-TCGTCGGTTTCGGCGCGCGCCG-3′ (DNA, all phosphorothioate, methylation of C not given here; further chemistry not fully specified) [DNA4]”, the “induced secretion of IL-12” value [1, 4] was “does not induce secretion”, the “induced secretion of IL-15” value [1, 4] was “does not induce secretion” and the “cytokine secretion when complexed to the CAL2 peptide” value (from here on “cytokine secretion when complexed”) [1] was “marked increase”. The “cytokine secretion, component on its own” value ([1]; 25 μg/mL) was “minimal”.

In the case of “5′-TTCGGCGCGCGCGCGCGCGCGCCGTT-3′ (DNA, all phosphorothioate, methylation of C not given here; further chemistry not fully specified) [DNA10]”, the “cytokine secretion when complexed” value [1] is reported as “marked increase” and the “cytokine secretion, component on its own” value ([1]; 25 μg/mL) is reported as “minimal”.

With “5′-guuggugguugugugagcgu-3′ (rG*rU*rU*rG*rG*rU*rG*rG*rU*rU*rG*rU*rG*rU*rG*rA*rG*rC*rG*rU) [RNA248]” the “cytokine secretion when complexed” value [1] was “marked increase” and the “cytokine secretion, component on its own” value ([1]; 25 μg/mL) was “minimal; also recorded: very minimal”.

In the case of “34 (RRHRKRRLSTCMLGTYTQDFNKFHTFPQTAIRRHRKRR; targeting calcitonin) [compound 34]”, the “complex formation with DNA4/RNA248” value (DNA4/RNA248) is reported as “stable complexes were formed”.

With “42 (RIPVKWTAIESLFDHRRHRKRR; targeting RETM918T) [compound 42]” the “complex formation with DNA4/RNA248” value (DNA4/RNA248) was “stable complexes were formed”.

In the case of COc1cc2nccc(Oc3ccc(NC(=O)NC4CC4)c(Cl)c3)c2cc1C(N)=O [lenvatinib], the overall survival benefits [2] is given as “marginal” and the progression free survival [2] is given as “improved”.

In the case of CNC(=O)c1cc(Oc2ccc(NC(=O)Nc3ccc(Cl)c(C(F)(F)F)c3)cc2)ccn1 [sorafenib], the overall survival benefits [2] is listed as “marginal” and the progression free survival [2] is listed as “improved”.

With “RRHRKRRLSTCMLGTYTQDFNKFHTFPQTAI (targeting calcitonin) [SEQ. ID NO. 36]” the “cytokine secretion, component on its own” value ([1]; 25 μg/mL) was “very minimal”, the “nucleotide bands in gel” value (DNA4/RNA248; SEQ. ID NO. 36 to DNA4/RNA248 2:1 (Lane #5) and 4:1 (Lane #6), 20 V/cm, FIG. 9) was “no nucleotide bands are seen” and the “free DNA4/RNA248 in gel” value (DNA4/RNA248; peptide to DNA4/RNA248 ratios exceeding 2:1, electric field of 20 V/cm) was “no free DNA4/RNA248 could be visualized”.

B1: PEGylated IL-10: PEGylated IL-10 given to patients (protein, UniProt P22301 19-178, looked up)
Interleukin-10: SPGQGTQSENSCTHFPGNLPNMLRDLRDAFSRVKTFFQMKDQLDNLLLKESLLEDFKGYLGCQALSEMIQFYLEEVMPQAENQDPDIKAHVNSLGENLKTLRLRLRRCHRFLPCENKSKAVEQVKNAFNKLQEKGIYKAMSEFDIFINYIEAYMTMKIRN
modifications: PEGylated
For B1, the “numbers of activated circulating CTLs” value [3] is listed as “increased”.
